# Measurements as given in patent US20070043512A1, “Therapeutic and prophylactic compositions and uses therefor” (priority 2003, published 2007).
# “And” between values parts separate entries of the source, which are not always exact repeats. Equal entries are not always repeated. “Also recorded” adds a separate entry of the source.
# B1: IL-10: cytokine stimulus, 10 ng/ml (BD) (protein, UniProt P22301 19-178, looked up)
# Interleukin-10: SPGQGTQSENSCTHFPGNLPNMLRDLRDAFSRVKTFFQMKDQLDNLLLKESLLEDFKGYLGCQALSEMIQFYLEEVMPQAENQDPDIKAHVNSLGENLKTLRLRLRRCHRFLPCENKSKAVEQVKNAFNKLQEKGIYKAMSEFDIFINYIEAYMTMKIRN
# Columns and labels:
# Assay type in all cases: cell-based, human
# [1] = tested on: aP2 gene expression; assay: Affymetrix U95A microarray, aP2 gene expression in stimulated NHBE cells; set-up: key to Regulation of aP2 gene expression: I, increased; D, decreased; NC, no change; conditions: 18 h; for Fold-Change aP2 gene expression: NHBE cells, 10 ng/ml cytokine, vs unstimulated cells, mean of both micro-array experiments; for Fold change aP2 gene expression / Regulation of aP2 gene expression: NHBE, 10 ng/ml, vs ctrl, individual array comparisons
# Experimental: NHBE primary cell lines were purchased from Clonetics (San Diego, Calif.). Both NHBE cell lines, lot 8F1142 and 7F1482, were isolated […]. NHBE cells were maintained in Clonetics bronchial epithelial growth media (BEGM), which included supplements of 52 μg/ml bovine pituitary extract, 0.5 μg/ml hydrocortisone, 0.5 μg/ml human recombinant epidermal growth factor, 0.5 μg/ml epinephrine, 10 μg/ml transferrin, 5 μg/ml insulin, 0.1 μg/ml retinoic acid, 6.5 μg/ml triiodothryonine, 50 μg/ml gentamycin and 50 μg/ml amphotericin B (Clonetics). Medium was replaced every three to four days. When confluent, cells were subcultured at a ratio of 1:3.
# (§1) When NHBE cells were 80% confluent and between passage 7 and 8, they were washed in PBS (Gibco) and starved for 24 h in Clonetics bronchial epithelial cell basal medium (BEBM) containing 0.1% w/v BSA.
# A preliminary time course experiment in IL-4 and IL-13 stimulated NHBE identified 18 h as a time point associated with strong gene regulation and this time point was selected for subsequent analysis. Gene expression in unstimulated- and IL-4- and IL-13-stimulated NHBE was measured using Affymetrix U95A Gene Chips. The experiment was performed twice, using two independent NHBE lines. One novel finding was increased expression of the adipocyte gene aP2 in the cytokine stimulated NHBE cells (Table 3).
# NHBE cells were stimulated with 10 ng/ml IL-4 or 10 ng/ml IL-13. After 18 h, gene expression in these cells, and in unstimulated NHBE cells, was analysed using Affymetrix U95A chips. The fold-change in gene expression following cytokine stimulation compared to unstimulated NHBE cells is shown. Data are the mean of both micro-array experiments.
# (§2) Depending on the quantity of RNA available, cRNA was prepared according to the GeneChip Expression Analysis Technical Manual (Array experiment 1; Affymetrix, Santa Clara, Calif.) or the cRNA methods published in Baugh et al., Nucleic Acids Res. 29(5): E29, 2001 (Array experiment 2). The GeneChip Expression Analysis protocol involved cDNA synthesis from 20 μg of total RNA using a poly(T) primer containing a T7 RNA polymerase promoter (Geneworks, Australia):
# (§3) cRNA was transcribed from cDNA and biotinylated using the BioArray High Yield RNA Transcript Labeling Kit (Enzo Diagnostics, Farmingdale, N.Y.). Twenty micrograms of cRNA was fragmented by heating at 94° C. for 35 min in fragmentation buffer (40 mM Tris acetate (pH 8.1), 125 mM KOAc, 30 mM MgOAc) prior to hybridization. For the small-scale cRNA amplification (Baugh et al., 2001, supra), cDNA synthesis volumes were different from the GeneChip Expression Analysis Technical Manual but reaction component concentrations, incubation times and temperatures were conserved. Five hundred nanograms of RNA was used and 15 μg cRNA was fragmented prior to hybridization.
# (§4) Hybridization cocktails were then made by adding fragmented cRNA, control cRNAs, grid alignment oligonucleotides and blocking reagents. These mixtures were hybridised overnight (˜16 h) to individual Test3 (Affymetrix) arrays at 45° C., under constant rotation at 60 rpm. Washing and staining of the hybridized arrays were performed by an Affymetrix Fluidics Station, according to the manufacturer's protocols. Fluorescent signals were measured on the arrays using the Agilent GeneArray Laser Scanner and gene transcript levels were determined and scaled to 150 using algorithms in MicroArray Analysis Suite Software 5.0 (Affymetrix). For each array experiment, the hybridization cocktails met the test three criteria (background less then 150, GAPDH and β-actin 3′/5′ ratios less then three and similar scaling factors between samples), and were used to probe Affymetrix U95A GeneChips. Relative mRNA expression levels on the IL-4 and IL-13 stimulated NHBE arrays were expressed as plus or minus fold changes when compared to the control NHBE array.
# Regulation of aP2 gene expression was examined for all comparison arrays in which aP2 expression was detected. […]
# [2] = tested on: aP2 protein expression; assay: Immunofluorescent staining of aP2 protein in NHBE cells; conditions: NHBE (HBE) cells, 10 ng/ml, 24 h
# Experimental: NHBE cells were grown in chamber slides and treated with culture medium alone, or with medium supplemented with 10 ng/ml IL-4 or 10 ng/ml IL-13. After 24 h, the culture medium was removed and the cells were air-dried for 30 min. The cells were fixed in 1% v/v paraformaldehyde for 20 min at room temperature. The slides were washed in PBS and the cells were permeabilised in 70% v/v ethanol at −20° C. for 20 min. The cells were washed in PBS-Triton for 5 min, and then blocked for 60 min with 10% v/v normal goat serum in 2% v/v BSA/Tris-buffered saline (TBS). The normal goat serum was removed and […] (1:1000 dilution in 2% BSA/TBS) or rabbit isotype control (1:4 dilution; Zymed) was added. The slides were incubated overnight at room temperature, washed 3×5 min in TBS-Triton (TBS-T), and incubated with secondary Ab (TRITC-conjugated anti-rabbit Ig; dilution 1:100) for 1 h at room temperature. The slides were washed in TBS-T for 5 min, and cover-slipped after the addition of Vectashield. The slides were examined on a confocal microscope.
# [3] = tested on: aP2 expression; assay: aP2 expression in THP-1 cells; conditions: 10 ng/ml IL-4, 10 ng/ml IL-13 or 28 ng/ml IFN-γ (FIG. 6)
# Experimental: FIG. 6 is a graphical representation showing aP2 expression in THP-1 cells stimulated with (A) 10 ng/ml IL-4, 10 ng/ml IL-13 or 28 ng/ml IFN-γ or (B) 50 ng/ml PMA. The data are mean±SEM from three independent experiments.
# To address this issue, the effect of IL-4, IL-13 and IFN-γ on expression of aP2 in the human monocyte cell line THP-1 was examined.
# [4] = tested on: FABP-5 gene expression; assay: Microarray, FABP-5 gene expression in bronchial smooth muscle cells (BSMC); set-up: key to Regulation of FABP-5 gene expression: I, increased; D, decreased; NC, no change; conditions: 10 ng/ml, 18 h, vs ctrl
# [5] = tested on: FABP-5 gene expression; assay: Microarray, FABP-5 gene expression in NHBE cells; set-up: key to Regulation of FABP-5 gene expression: I, increased; D, decreased; NC, no change; conditions: for Effect on FABP-5 (mal1) expression, microarray: NHBE (HBE) cells; for Fold change FABP-5 gene expression / Regulation of FABP-5 gene expression: NHBE, 10 ng/ml, 18 h, vs ctrl
# Experimental: as §1, §2, §3, §4
# Positive/negative fold change indicates greater/lesser gene expression in the first-named array, respectively. I, increased; D, decreased; NC, no change. Where the same type of array comparison is listed more than once, this represents repeat experiments.
# [6] = tested on: aP2 gene expression; assay: Real-time PCR, aP2 gene expression in NHBE cells; conditions: for Fold-Change aP2 gene expression (real-time PCR): NHBE cells, 10 ng/ml cytokine, 18 h, vs unstimulated, mean of two RNA sets used in arrays; for Effect on aP2 expression: NHBE (HBE) cells, stimuli for 18 h, real-time PCR (FIG. 2)
# Experimental: as §1
# (§5) Total RNA was isolated from cells using the RNeasy Total RNA Isolation Kit (Qiagen, Chatswort, Calif.) or Trizol (Invitrogen, CA) as per the manufacturer's instructions.
# (§6) cDNA was made using Reverse-IT RTase Blend Kit (ABgene, UK) or Avian myeloblastosis virus Reverse Transcriptase (Promega, Madison, Wis.) according to manufacturer's instructions. Oligo-p(dt)15 primer (Roche Molecular Biochemicals) was used at 1 μM in both cDNA preparation methods. Following cDNA synthesis, 1 μl of cDNA template was used for each PCR. Real-time PCR was conducted using Light Cycler-FastStart DNA Master SYBR Green I kit (Roche Molecular Biochemicals) according to manufacturer's specifications using 2 mM MgCl2 and 1 μM primers. Human aP2 forward and reverse primers and FABP-5 forward and primers were designed from Genbank sequences using Primer3 software (Rozen and Skaletsky, Methods Mol. Biol. 132: 365-386, 2000):
# (§7) After an initial denaturation for 10 min at 95° C., the samples were run for 40 cycles at 95° C. (15 s), 63° C. (5 s), and 72° C. (10 s). At the end of each cycle, the fluorescence was measured in a single step in channel F1. After the 40th cycle, the specimens were heated to 95° C. and cooled to 65° C. for 15 s. All heating and cooling steps were performed with a slope of 20° C./sec. The temperature was then raised to 95° C. at a rate of 0.1° C./sec and fluorescence was measured continuously (channel F1) to obtain a melting curve for the PCR products. Each gene was normalized to a housekeeping gene GAPDH before fold change was calculated (using crossing point values) to account for variations between different samples. The aP2 PCR product was confirmed by size on a 2% w/v agarose gel and by sequencing at Sydney University Prince Alfred Macromolecular Analysis Centre, NSW, Australia.
# Using the same RNA samples as were used for the microarray experiments, aP2 gene expression was analysed using real-time PCR. […] Data are the mean from the two sets of RNA that were used in the array experiments.
# [7] = tested on: FABP-5 gene expression; assay: Real-time PCR, FABP-5 (mal1) gene expression in NHBE cells; conditions: for Effect on FABP-5 (mal1) expression, real-time PCR: NHBE (HBE) cells, 10 ng/ml (FIG. 3)
# Experimental: as §1, §5, §6, §7
# [8] = tested on: FABP-5 gene expression; assay: Microarray, FABP-5 gene expression in synovial fibroblasts (RA/OA synoviocytes); set-up: key: I, increased; D, decreased; NC, no change; conditions: 10 ng/ml, 4 h
# [9] = tested on: aP2 gene expression; assay: Real-time PCR, aP2 gene expression in NHBE cells; conditions: NHBE (HBE) cells, subsequent experiment
molecule,measurement,setting,value
"IL-13: allergy-associated type-2 cytokine used as stimulus, 10 ng/ml (BD)",Fold-Change aP2 gene expression,[1],31.8
same,Fold change aP2 gene expression,[1],45.3 and 18.4
same,Regulation of aP2 gene expression,[1],I
same,Intensity of aP2 staining vs unstimulated cells,[2],considerably greater
same,Nuclear localisation of aP2,[2],significant nuclear localisation
same,Effect on aP2 expression,[3],stimulated aP2 expression
same,Fold change FABP-5 gene expression,[4],1.7
same,Regulation of FABP-5 gene expression,[4],NC and I
same,"Effect on FABP-5 (mal1) expression, microarray",[5],mildly up-regulated
same,Fold change FABP-5 gene expression,[5],1.5
same,Regulation of FABP-5 gene expression,[5],I and NC
same,Fold-Change aP2 gene expression (real-time PCR),[6],56
same,"Effect on FABP-5 (mal1) expression, real-time PCR",[7],up-regulated; also recorded: upregulated
"IL-1: cytokine Interleukin (IL)-1β used as stimulus, 10 ng/ml",Regulation of FABP-5 gene expression,"[8]; RA synoviocytes, vs RA ctrl",NC
same,Effect on aP2 expression,[6],no effect
"IL-4: allergy-associated type-2 cytokine used as stimulus, 10 ng/ml (BD)",Fold-Change aP2 gene expression,[1],33.4
same,Fold change aP2 gene expression,[1],48.5 and 18.4
same,Regulation of aP2 gene expression,[1],I
same,Intensity of aP2 staining vs unstimulated cells,[2],considerably greater
same,Nuclear localisation of aP2,[2],significant nuclear localisation
same,Effect on aP2 expression,[3],stimulated aP2 expression
same,Regulation of FABP-5 gene expression,"[8]; RA synoviocytes, vs RA ctrl",NC
same,"Effect on FABP-5 (mal1) expression, microarray",[5],mildly up-regulated
same,Fold change FABP-5 gene expression,[5],1.4 and 2
same,Regulation of FABP-5 gene expression,[5],I
same,Fold-Change aP2 gene expression (real-time PCR),[6],65
same,"Effect on FABP-5 (mal1) expression, real-time PCR",[7],up-regulated; also recorded: upregulated
TNFα,Regulation of FABP-5 gene expression,"[8]; OA synoviocytes, vs OA ctrl",NC
same,Regulation of FABP-5 gene expression,"[8]; RA synoviocytes, vs RA ctrl",NC
same,Effect on aP2 expression,[6],no effect
"IL-6: cytokine stimulus, 5 ng/ml (BD)",Effect on aP2 expression,[6],no effect
"CCCCCCCCCCCCCC(=O)O[C@@H]1[C@@H](C)[C@@]2(O)[C@@H](C=C(CO)C[C@]3(O)C(=O)C(C)=C[C@@H]23)[C@@H]2C(C)(C)[C@]12OC(C)=O [PMA, phorbol myristate acetate, reference compound]",Effect on aP2 expression,[6],slight down-regulation; also recorded: slight downregulation
"IFN-γ: prototypic type 1 cytokine, 28 ng/ml",Effect on aP2 expression,[3],reduced expression
same,Effect on aP2 expression,[6],strongly down-regulated
same,Effect on aP2 expression,[6]; listed as IFNg,down-regulated
same,Effect on aP2 expression,[6]; listed as IFNγ,strongly downregulated
same,Effect on mal1 expression,"[7]; HBE cells, summary statement, method not stated",down-regulated
Cc1cccc(Nc2cc(Cl)nc(SCC(=O)O)n2)c1C [WY14643],Effect on aP2 expression,[9],little or no effect
B1,Effect on aP2 expression,[6],no effect
